From ChEMBL document CHEMBL1177672, “Discovery of orally available spirodiketopiperazine-based CCR5 antagonists” (Bioorg Med Chem, 2010)

Tests used:
Liver microsomes [1] = assay: Half life in rat liver microsome at 0.2 mg/ml; assay type: ADME
[2] = target: C-C chemokine receptor type 5 (Homo sapiens, UniProt P51681); assay: Antagonist activity at human CCR5 receptor expressed in CHO cells assessed as inhibition of MIP-1-alpha-stmulated calcium mobilization; assay type: functional, cell-based
Liver microsomes [3] = assay: (§1) Metabolic stability in rat liver microsomes assessed as compound remaining at 0.5 mg/ml after 15 mins; assay type: ADME, Microsome; settings: microsomes, 0.25 h
[4] = Half life in rat at 30 mg/kg, po; assay type: ADME, organism-based; parameters: dose 30 mg/kg, route oral; settings: in vivo
[5] = Aqueous solubility of the compound; assay type: physicochemical; settings: buffer
Caco-2 [6] = assay: Apparent permeability from apical to basolateral side of human Caco-2 cells; assay type: ADME, cell-based
[7] = Cmax in rat at 30 mg/kg, po; assay type: ADME, organism-based; parameters: dose 30 mg/kg, route oral; settings: in vivo
Caco-2 [8] = assay: Apparent permeability from basolateral to apical side of human Caco-2 cells; assay type: ADME, cell-based
[9] = (§2) AUC in rat at 30 mg/kg, po; assay type: ADME, organism-based, Plasma; parameters: dose 30 mg/kg, route oral; settings: plasma
[10] = tested on: Human immunodeficiency virus 1; assay: microbe, parasite or virus in culture; settings: Human immunodeficiency virus 1, BAL
Description: Antiviral activity against HIV1 BAL by p24 assay

[11] = Clearance in rat at 3 mg/kg, iv; assay type: ADME, organism-based; parameters: dose 3 mg/kg, route intravenous; settings: in vivo
[12] = Oral bioavailability in rat at 30 mg/kg; assay type: ADME, organism-based; settings: in vivo
[13] = Volume of distribution at steadt state in rat at 3 mg/kg, iv; settings: in vivo
[14] = Half life in rat at 3 mg/kg, iv; assay type: ADME, organism-based; parameters: dose 3 mg/kg, route intravenous; settings: in vivo
Rattus norvegicus [15] = assay: AUC in rat at 3 mg/kg, iv; assay type: ADME, organism-based, Plasma; parameters: dose 3 mg/kg, route intravenous; settings: in vivo
Rattus norvegicus [16] = assay: as §2; assay type: ADME, organism-based, Plasma; parameters: dose 30 mg/kg, route oral; settings: in vivo
[17] = as §1; assay type: ADME, Microsome; settings: liver microsomes, read-out: Stability

C-C chemokine receptor type 5, sequence (P51681 whole entry): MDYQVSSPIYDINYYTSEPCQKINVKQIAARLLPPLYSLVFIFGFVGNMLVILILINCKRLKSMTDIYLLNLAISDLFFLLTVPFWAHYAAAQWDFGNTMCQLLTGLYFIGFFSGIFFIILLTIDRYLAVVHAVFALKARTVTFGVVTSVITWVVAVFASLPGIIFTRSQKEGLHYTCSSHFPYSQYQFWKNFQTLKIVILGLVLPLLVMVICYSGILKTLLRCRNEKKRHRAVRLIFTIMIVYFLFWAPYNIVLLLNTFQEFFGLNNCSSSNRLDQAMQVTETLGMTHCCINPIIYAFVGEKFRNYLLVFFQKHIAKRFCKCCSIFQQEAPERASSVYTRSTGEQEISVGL

Row | Compound | t1/2 (Liver microsomes [1]) | IC50 [2] | Stability (Liver microsomes [3]) | further results
1 | CC#CCN1C(=O)C(CC(C)C)NC(=O)C12CCN(Cc1ccc(Oc3ccccc3)cc1)CC2.Cl (racemic) | 15 min | 54 nM | – | –
2 | CCCCN1C(=O)[C@H](CC2CCCCC2)NC(=O)C12CCN(Cc1ccc(Oc3ccc(F)cc3)cc1)CC2.Cl | – | 92 nM | 53% | –
3 | CCCCN1C(=O)[C@H](CC2CCCCC2)NC(=O)C12CCN(Cc1ccc(S(=O)(=O)c3ccccc3)cc1)CC2.Cl | – | 86 nM | 19% | –
4 | CCCCN1C(=O)[C@H](CC2CCCCC2)NC(=O)C12CCN(Cc1ccc(C(=O)c3ccccc3)cc1)CC2.Cl | – | 81 nM | 23% | –
5 | CCCCN1C(=O)[C@H](CC2CCCCC2)NC(=O)C12CCN(Cc1ccc(Oc3ccc(C(=O)NC)cc3)cc1)CC2.Cl | – | 33 nM | 4% | half-life [4]: 72.7 min; solubility [5]: 6 µM; Papp (Caco-2 [6]): 3.51 ×10⁻⁶ cm/s
6 | CCCCN1C(=O)[C@H](CC2CCCCC2)NC(=O)C12CCN(Cc1ccc(Oc3ccc(C)cc3)cc1)CC2.Cl | – | 79 nM | 48% | –
7 | C/C=C/CN1C(=O)C(CC(C)C)NC(=O)C12CCN(Cc1ccc(Oc3ccccc3)cc1)CC2.Cl (racemic) | 14 min | 69 nM | – | –
8 | CCCCN1C(=O)[C@H](CC2CCCCC2)NC(=O)C12CCN(Cc1ccc(Oc3ccc(O)cc3)cc1)CC2.Cl | – | 42 nM | 22% | half-life [4]: 205 min; Cmax [7]: 100 ng/mL; Papp (Caco-2 [8]): 0.14 ×10⁻⁶ cm/s; solubility [5]: < 5 µM; AUC [9]: 195 ng·h/mL; Papp (Caco-2 [6]): 0.33 ×10⁻⁶ cm/s
9 | CCCCN1C(=O)[C@H](CC2CCCCC2)NC(=O)C12CCN(Cc1ccc(Oc3ccc(S(N)(=O)=O)cc3)cc1)CC2.Cl | – | 28 nM | 24% | IC50 [10]: 10 nM
10 | CC(C)CC1NC(=O)C2(CCN(Cc3ccc(Oc4ccccc4)cc3)CC2)N(Cc2ccccc2)C1=O (racemic) | – | 300 nM | – | –
11 | CC(C)CC1NC(=O)C2(CCN(Cc3ccc(Oc4ccccc4)cc3)CC2)N(CC(C)C)C1=O.Cl (racemic) | 15 min | 330 nM | – | –
12 | CCCCN1C(=O)[C@H](CC2CCCCC2)NC(=O)C12CCN(Cc1ccc(Oc3ccc(OC)cc3)cc1)CC2.Cl | – | 130 nM | 34% | –
13 | CC(C)CC1NC(=O)C2(CCN(Cc3ccc(Oc4ccccc4)cc3)CC2)N(CCC(C)O)C1=O.Cl (racemic) | 12 min | > 3000 nM | – | half-life [4]: 48.4 min; Cmax [7]: 7200 ng/mL; clearance [11]: 16 mL/min/kg; bioavailability [12]: 34.1%; Vd [13]: 0.145 L/kg; half-life [14]: 11.1 min; AUC [9]: 10500 ng·h/mL
14 | CCCCN1C(=O)[C@H](CC(C)C)NC(=O)C12CCN(Cc1ccc(Oc3ccccc3)cc1)CC2.Cl | 7.1 min | – | – | –
15 | CCCCN1C(=O)[C@H](CC(C)(C)C)NC(=O)C12CCN(Cc1ccc(Oc3ccccc3)cc1)CC2.Cl | 12 min | 79 nM | – | –
16 | CCCCN1C(=O)[C@H](CC2CCCCC2)NC(=O)C12CCN(CCc1ccc(Oc3ccccc3)cc1)CC2 | – | > 3000 nM | – | –
17 | CCCCN1C(=O)C(CC2CCCCC2)NC(=O)C12CCN(Cc1c(C)nn(-c3ccccc3)c1C)CC2.Cl.Cl (racemic) | – | 35 nM | 23% | –
18 | CCCCN1C(=O)C(CC2CCCC2)NC(=O)C12CCN(Cc1ccc(Oc3ccccc3)cc1)CC2.Cl (racemic) | 20 min | 52 nM | – | –

Row | Compound | t1/2 (Liver microsomes [1]) | IC50 [2] | Stability (Liver microsomes [3]) | further results
19 | CCCCN1C(=O)C(CC(C)C)NC(=O)C12CCN(Cc1ccc(Oc3ccccc3)cc1)CC2.Cl (racemic) | 12 min | – | – | half-life [4]: 75.7 min; Cmax [7]: 100 ng/mL; Papp (Caco-2 [8]): 2.23 ×10⁻⁶ cm/s; AUC (Rattus norvegicus [15]): 372 ng; solubility [5]: 14 µM; half-life [14]: 13 min; AUC (Rattus norvegicus [16]): 290 ng·h/mL; Papp (Caco-2 [6]): 1.51 ×10⁻⁶ cm/s
20 | CCCCN1C(=O)C(CCC)NC(=O)C12CCN(Cc1ccc(Oc3ccccc3)cc1)CC2.Cl (racemic) | 22 min | 50 nM | – | –
21 | CCCCN1C(=O)C(CC2CCCCC2)NC(=O)C12CCN(Cc1ccc(OC)cc1)CC2.Cl (racemic) | 8.3 min | – | – | –
22 | CCCCN1C(=O)[C@H](CC2CCCCC2)NC(=O)C12CCN(Cc1ccc(Oc3ccc(NS(C)(=O)=O)cc3)cc1)CC2.Cl | – | 40 nM | 15% | –
23 | CCCCN1C(=O)[C@H](CC2CCCCC2)NC(=O)C12CCN(Cc1ccc(Oc3ccc(C(=O)O)cc3)cc1)CC2.Cl | – | – | – | Papp (Caco-2 [8]): 16.8 ×10⁻⁶ cm/s; solubility [5]: 29 µM; Papp (Caco-2 [6]): 11 ×10⁻⁶ cm/s; remaining at 0.25 h [17]: 22%
24 | CCCCN1C(=O)C(CC2CCCCC2)NC(=O)C12CCN(C(=O)OCc1ccccc1)CC2 (racemic) | – | 3000 nM | – | –
25 | CCCCN1C(=O)C(CCCC2CCCCC2)NC(=O)C12CCN(Cc1ccc(Oc3ccccc3)cc1)CC2.Cl (racemic) | 23 min | > 3000 nM | – | –
26 | CCCCN1C(=O)C(CC2CCCCC2)NC(=O)C12CCN(Cc1csc(-c3ccccc3)n1)CC2 (racemic) | – | 570 nM | – | –
27 | CCCCN1C(=O)C(CC2CCCCC2)NC(=O)C12CCN(Cc1ccc(Oc3ccccc3)nc1)CC2.Cl.Cl (racemic) | – | 21 nM | 10% | –
28 | CCCCN1C(=O)[C@H](CC2CCCCC2)NC(=O)C12CCN(Cc1ccc(Sc3ccccc3)cc1)CC2.Cl | – | 170 nM | 38% | –
29 | CCCCN1C(=O)[C@H](CC2CCCCC2)NC(=O)C12CCN(Cc1nc(-c3ccccc3)oc1C)CC2 | – | 450 nM | – | –
30 | CCCCN1C(=O)[C@H](CC2CCCCC2)NC(=O)C12CCN(Cc1ccc(-c3cccnc3)cc1)CC2.Cl.Cl | – | 71 nM | 29% | –
31 | CCCCN1C(=O)C(CC2CCCCC2)NC(=O)C12CCN(Cc1ccc(Oc3ccccc3)cc1)CC2.Cl (racemic) | 24 min | – | – | clearance [11]: 113 mL/min/kg; Papp (Caco-2 [8]): 0.27 ×10⁻⁶ cm/s; AUC (Rattus norvegicus [15]): 400 ng; solubility [5]: < 5 µM; half-life [14]: 19.9 min; AUC [9]: 74.4 ng·h/mL; Papp (Caco-2 [6]): 0.15 ×10⁻⁶ cm/s
32 | CCCCN1C(=O)C(CC(=O)OCc2ccccc2)NC(=O)C12CCN(Cc1ccc(Oc3ccccc3)cc1)CC2 (racemic) | – | 590 nM | – | –
33 | CCCCN1C(=O)[C@H](CC2CCCCC2)NC(=O)C12CCN(Cc1ccc(C(=O)Nc3ccccc3)cc1)CC2.Cl | – | 57 nM | 29% | –
34 | CCCCN1C(=O)C(CC(=O)O)NC(=O)C12CCN(Cc1ccc(Oc3ccccc3)cc1)CC2 (racemic) | – | > 3000 nM | – | –
35 | CCCCN1C(=O)C(CC2CCCCC2)NC(=O)C12CCN(c1ccc(C(=O)OCC)cc1)CC2 (racemic) | – | > 3000 nM | – | –
36 | CCCCN1C(=O)C(CC2CCCCC2)NC(=O)C12CCN(Cc1c[nH]c(-c3ccccc3)n1)CC2 (racemic) | – | 160 nM | – | –
